# Entries after “also recorded” stand apart in the source; their conditions may differ.
# Columns and labels:
# Type in all cases: cell-based
# [1] = tested on: primary glioblastoma line GS1049; assay: Cell count of primary glioblastoma line GS1049; conditions: 48 h incubation, cell counting normalized to untreated controls; read-out: Estimated IC50 values, GS 1049
# Experimental: FIG. 7A depicts the results of primary glioblastoma lines 612 and GS1049 after incubation for 48 h with Ac4Glc2Bz followed by cell counting and normalization to untreated controls. The data is log transformed to easily determine IC50 values. FIG. 7B and FIG. 7C depict the measurement of proliferation of the primary glioblastoma lines after 48 h incubation with Ac4Glc2Bz using a MTT assay.
# Cells were incubated at a range of concentrations of the UAP inhibitors (typically at 0, 10, 25, 50, 100, and 150 μM) and the number of cells were quantified, typically by automated counting (e.g., with a Coulter Counter Z2 instrument) after 1, 2, 3, or 5 days of exposure.
# [2] = tested on: O-GlcNAc protein modification; assay: Western blot of O-GlcNAcylation with CTD110.6; conditions: 612, GS1049, SW1990 and PANC-1 cells, 40 μM or 60 μM, 48 h
# Experimental: Exemplary CTD110.6 protein expression results were obtained for 612 cells (FIG. 17A); GS1049 cells (FIG. 17B); SE1990 cells (FIG. 17C); and PANC-1 cells (FIG. 17D) with either 40 μM or 60 μM Ac4Glc2Bz.
# For example, as shown in FIG. 17A-17D, Ac4Glc2Bz could change O-GlcNAcylation in a dose-dependent manner in each cell of 612 cells (FIG. 17A); GS1049 (FIG. 17B); SW1990 (FIG. 17C) and PANC-1 (FIG. 17D). In particular, the band intensities of CTD110.6 (anti-O-GlcNAc antibody) from each treated cell decreased as the concentrations of Ac4Glc2Bz treatment were increased. 3×10^5 cells were plated in 6-well plates, with 2 wells per condition tested as indicated in FIG. 17A-D. After 48 h, proteins were collected after freezing for 15 minutes at −80° C. using extraction buffer consisting of 20 mM TrisHCl, pH 7.5, 1% v/v NP-40, 2 mM EDTA, 0.1 mM phenylmethylsulfonyl fluoride, phosphatase inhibitor cocktails 2 and 3 (1×) (SIGMA), ThiametG (10 nM) (Cayman Chemical), β-hexosaminidase inhibitor (5 μM) (Millipore), sodium fluoride (1 mM), and β-glycerophosphate (1 mM). The lysed cells were scraped, collected, and incubated on ice for 20 minutes while vortexing for 5-10 s ever 5 minutes. Samples were sonicated for 5 seconds and then centrifuged at 14,000 RPM for 20 minutes at 4° C. The supernatant was removed, normalized to 1 mg/mL, and 20 μg was loaded onto a 7.5% SDS-PAGE gel. […]
# global DNA methylation = assay: Global DNA methylation assay in SW1990 cells
# Experimental: In 6-well plates, SW1990 cells were seeded (3×10^5) and were treated with Ac4Glc2Bz at the indicated concentrations. DNA from treated cells was isolated using a FitAmp Blood and Cultured Cell DNA Extraction Kit (Epigentek) followed by colormetric determination of global methylation using a MethylFlash™ Methylated DNA Quantification Kit (Epigentek). […] For instance, by reducing flux through the HBP, UAP inhibitors could exert epigenetic effects, as global DNA methylation was increased as shown in FIG. 23. Although hypermethylation of promoter sites of tumor suppressors might be common in cancer at a global scale, cancer cells are almost always characterized by hypomethylation, which the current UAP inhibitors appeared to be reversing (Epigenomics. 2009 December; 1(2): 239-259; Oncogene. 12 Aug. 2002, Volume 21, Number 35, Pages 5400-5413).
smiles,measurement,setting,value
CC(=O)OCC1OC(OC(C)=O)[C@@H](NC(=O)c2ccccc2)[C@@H](OC(C)=O)[C@@H]1OC(C)=O (stereo partly drawn) [Ac4Glc2Bz],IC50,[1],88.8 ± 1.8 µM
same,"O-GlcNAcylation, band intensities of CTD110.6",[2],decreased; also recorded: changed
same,global DNA methylation,global DNA methylation,promote global DNA methylation at higher doses
